{"source": "patent US20150352127A1", "about": "“INHALATION PARTICLES COMPRISING A COMBINATION OF AN ANTICHOLINERGIC, A CORTICOSTEROID AND A BETA-ADRENERGIC” (CHIESI FARMACEUTICI S.P.A., priority 2014, published 2015)", "format_in_all_cases": "physicochemical", "key": {"[1]": {"test": "Drug content of the microparticles by UPLC assay", "conditions": "in spray dried microparticles of Example 1; mean±SD, n=5"}, "[2]": {"test": "Aerosol performances by Next Generation Impactor (NGI) from NEXThaler", "conditions": "formulation of Example 3, NEXThaler, 60 L/min; mean±S.D., n=6", "experimental": "Aerosol performances were determined using the Next Generation Impactor (NGI) with a USP induction port and pre-separator containing 15 mL 60:40% v/v MeOH:H2O. […] The aerodynamic particle size distribution was based on 5 actuations from the NEXThaler®, each sampled into 4 liters of air (equivalent to an inhalation time of 4 s). The device was weighed before and after each actuation to determine the shot weight (mg). A minimum of 1 minute was allowed between consecutive actuations to allow static charge to dissipate.\nSamples were collected from the NGI using a fixed volume technique. MeOH:H2O (60:40% v/v) was dispensed into the induction port (including mouthpiece); pre-separator; and each stage using an electronic metering dispenser. The induction port (30 mL) and pre-separator (50 mL) were sealed using silicone bungs and shaken by hand for 2 minutes before the samples were collected. The NGI stages (10 mL stages 1-2; 15 mL stage 3-MOC) were rocked using a NGI rocker for 3 minutes. All samples were filtered using a 0.2 μm syringe filter before analysis by UPLC-PDA."}, "[3]": {"test": "Uniformity of distribution of the active ingredients in the powder formulation (UPLC-PDA)", "conditions": "powder formulation of Example 3; for Content: sampled 10 times", "experimental": "About 10 mg of the formulation was weighed directly into a 25 mL volumetric flask. It was sampled 10 times. The flask was made up to volume with 60:40% v/v MeOH:H2O and sonicated for 2 minutes. The samples were analyzed for each active ingredient using UPLC-PDA assay."}}, "note": "Where a name gives a salt, the structure may show the parent alone."}
{"smiles": "C[N+]1(C)CCC(OC(=O)C(O)(c2ccccc2)C2CCCC2)C1", "note": "(racemic) [GB, glycopyrronium bromide]", "values": [{"measurement": "Actual concentration", "setting": "[1]", "value": "10.6 ± 0.1", "unit": "% w/w"}, {"measurement": "DD (delivered dose)", "setting": "[2]", "value": "11.5 ± 0.4", "unit": "µg"}, {"measurement": "FPF (fine particle fraction)", "setting": "[2]", "value": "68.5 ± 3.7", "unit": "%"}, {"measurement": "FPF < 1 μm (extrafine FPF)", "setting": "[2]", "value": "21.7 ± 0.7", "unit": "%"}, {"measurement": "FPF < 2 μm (extrafine FPF)", "setting": "[2]", "value": "39.3 ± 1.6", "unit": "%"}, {"measurement": "FPM (fine particle mass, ≤5.0 micron)", "setting": "[2]", "value": "7.9 ± 0.5", "unit": "µg"}, {"measurement": "MMAD", "setting": "[2]", "value": "1.9 ± 0.1", "unit": "μm"}, {"measurement": "% of Target", "setting": "[3]", "value": 105.37, "unit": "%"}, {"measurement": "Content", "setting": "[3]", "value": "12.64 ± 0.18", "unit": "μg 10 mg^−1"}]}
{"smiles": "CCC(=O)OCC(=O)[C@@]1(OC(=O)CC)[C@@H](C)C[C@H]2[C@@H]3CCC4=CC(=O)C=C[C@]4(C)[C@@]3(Cl)[C@@H](O)C[C@@]21C", "note": "[BDP, beclometasone dipropionate]", "values": [{"measurement": "Actual concentration", "setting": "[1]", "value": "82.0 ± 0.3", "unit": "% w/w"}, {"measurement": "DD (delivered dose)", "setting": "[2]", "value": "87.6 ± 2.2", "unit": "µg"}, {"measurement": "FPF (fine particle fraction)", "setting": "[2]", "value": "68.5 ± 3.1", "unit": "%"}, {"measurement": "FPF < 1 μm (extrafine FPF)", "setting": "[2]", "value": "20.8 ± 0.7", "unit": "%"}, {"measurement": "FPF < 2 μm (extrafine FPF)", "setting": "[2]", "value": "38.6 ± 1.2", "unit": "%"}, {"measurement": "FPM (fine particle mass, ≤5.0 micron)", "setting": "[2]", "value": "60.0 ± 3.6", "unit": "µg"}, {"measurement": "MMAD", "setting": "[2]", "value": "1.9 ± 0.1", "unit": "μm"}, {"measurement": "% of Target", "setting": "[3]", "value": 98.75, "unit": "%"}, {"measurement": "Content", "setting": "[3]", "value": "98.75 ± 1.23", "unit": "μg 10 mg^−1"}]}
{"smiles": "COc1ccc(CC(C)NCC(O)c2ccc(O)c(NC=O)c2)cc1", "note": "(stereo not shown) [FF, formoterol fumarate dihydrate]", "values": [{"measurement": "DD (delivered dose)", "setting": "[2]", "value": "5.2 ± 0.1", "unit": "µg"}]}
